In patent US6841682B2, “Heterocycles useful in the treatment of benign prostatic hyperplasia” (Janseen Pharmaceutica N.V., priority 1997, dated 2005):
pIC50: −log10 of the molar value. Read-outs that look alike come from different tables or passages of the source.

Experiments:
α1a-AR = target: T1, α1a-AR (Homo sapiens, UniProt P35348); assay: radioligand ([125I]-HEAT) receptor binding assay, COS cell membranes, α1a-AR
T1 construct: expressed in transfected cells; host or cells: COS cells (pcDNA3 vector, DEAE-dextran transient transfection); membrane preparation
T1 sequence (P35348 1-466): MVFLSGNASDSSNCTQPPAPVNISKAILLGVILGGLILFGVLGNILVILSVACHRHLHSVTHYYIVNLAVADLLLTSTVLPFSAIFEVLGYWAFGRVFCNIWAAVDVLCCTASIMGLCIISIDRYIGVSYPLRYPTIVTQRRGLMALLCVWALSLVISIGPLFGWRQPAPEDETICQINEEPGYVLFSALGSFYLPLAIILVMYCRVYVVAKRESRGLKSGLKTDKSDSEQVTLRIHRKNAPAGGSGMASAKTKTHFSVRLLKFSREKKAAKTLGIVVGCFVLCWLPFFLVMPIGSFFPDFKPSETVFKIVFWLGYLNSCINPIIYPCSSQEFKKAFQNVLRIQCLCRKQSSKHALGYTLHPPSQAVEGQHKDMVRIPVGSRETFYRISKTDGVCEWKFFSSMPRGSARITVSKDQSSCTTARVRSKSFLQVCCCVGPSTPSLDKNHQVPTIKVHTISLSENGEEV
Text: (§1) The first assay tested the ability of compounds of Formula I to bind to membrane bound receptors α1a-AR, α1b-AR and α1d-AR.
(§2) The DNA sequences of the three cloned human α1-AR subtypes have been published. […] We used published DNA sequence information to design-primers for use in RT-PCR amplification of each subtype to obtain cloned cDNAs. Human poly A+ RNA was obtained from commercially available sources and included hippocampus and prostate samples, sources which have been cited in the literature. For the primary screen a radio ligand binding assay was used which employed membrane preparations from cells expressing the individual cloned receptor cDNAs.
(§3) Each α1 receptor subtype was cloned from poly A+ RNA by the standard method of reverse transcription-polymerase chain reaction (RT-PCR). The following sources of polyA+ RNA were used for the cloning of the al receptor subtypes: α1a-AR, human hippocampus and prostate, α1b-AR, human hippocampus, α1d-AR, human hippocampus. The resulting cDNAs were cloned into the pcDNA3 mammalian expression vector (Invitrogen Corp., San Diego Calif.). Each DNA was sequenced for verification and to detect any possible mutations introduced during the amplification process. Any deviation in sequence from the published consensus for each receptor subtype was corrected by site-directed mutagenesis.
(§4) The three α1-AR subtypes (a, b, d) were transfected into COS cells using a standard DEAE-dextran procedure with a chloroquine shock. In this procedure, each tissue culture dish (100 mm) was inoculated with 3.5×10^6 cells and transfected with 10 μg of DNA. Approximately 72 hours post-transfection, the cells were harvested and COS membranes were prepared. Transfected COS cells from 25 plates (100 mm) were scraped and suspended in 15 mL of TE buffer (50 mM Tris-HCl, 5 mM EDTA, pH7.4). The suspension was disrupted with a homogenizer. It was then centrifuged at 1000×g for 10 minutes at 4° C. The supernatant was centrifuged at 34,500×g for 20 minutes at 4° C. The pellet was resuspended in 5 mL TNE buffer (50 mM Tris-HCl, 5 mM EDTA, 150 mM NaCl, pH7.4). The resulting membrane preparation was aliquoted and stored at −70° C. The protein concentration was determined following membrane solubilization with TritonX-100.
The ability of each compound to bind to each of the α1-AR subtypes was assessed in a receptor binding assay. […] The plate was incubated for 1 hour at room temperature and the reaction mixtures were filtered through a Packard GF/C Unifilter filter plate. The filter plate was dried for 1 hour in a vacuum oven. Scintillation fluid ([…]) was added to each well, and the filter plate was counted in a Packard Topcount scintillation counter. Data was analyzed using GraphPad Prism software.

α1b-AR = target: T2, α1b-AR (Homo sapiens, UniProt P35368); assay: radioligand ([125I]-HEAT) receptor binding assay, COS cell membranes, α1b-AR
T2 construct: expressed in transfected cells; host or cells: COS cells (pcDNA3 vector, DEAE-dextran transient transfection); membrane preparation
T2 sequence (P35368 1-520): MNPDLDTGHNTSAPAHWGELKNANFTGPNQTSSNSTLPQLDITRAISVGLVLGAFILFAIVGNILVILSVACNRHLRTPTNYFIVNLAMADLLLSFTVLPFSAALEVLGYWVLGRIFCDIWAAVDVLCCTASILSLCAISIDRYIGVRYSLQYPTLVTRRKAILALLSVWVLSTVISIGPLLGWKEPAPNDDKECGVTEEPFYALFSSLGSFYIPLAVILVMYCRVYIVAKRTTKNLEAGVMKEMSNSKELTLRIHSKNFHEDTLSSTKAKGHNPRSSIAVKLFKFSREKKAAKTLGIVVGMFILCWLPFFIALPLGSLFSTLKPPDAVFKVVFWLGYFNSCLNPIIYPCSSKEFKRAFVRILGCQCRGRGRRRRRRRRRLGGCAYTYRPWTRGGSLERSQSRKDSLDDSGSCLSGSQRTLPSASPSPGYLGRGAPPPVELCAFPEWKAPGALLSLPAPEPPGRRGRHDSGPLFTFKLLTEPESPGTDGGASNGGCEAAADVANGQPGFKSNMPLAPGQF
Text: as §1
as §2, with “receptor cDNAs. Radiolabeled ligands with binding activity on all three subtypes (non-selective) are commercially available ([125I]-HEAT, [3H]-prazosin).” for “receptor cDNAs.”
as §3, §4
(§5) The ability of each compound to bind to each of the α1-AR subtypes was assessed in a receptor binding assay. [125I]-HEAT, a non-selective α1-AR ligand, was used as the radiolabeled ligand. Each well of a 96-well plate received: 140 μL TNE, 25 μL [125I]-HEAT diluted in TNE (50,000 cpm; final concentration 50 pM), 10 μL test compound diluted in DMSO (final concentration 1 pM-10 μM), […] COS cell membrane preparation expressing one of the three α1-AR subtypes (0.05-0.2 mg membrane protein). The plate was incubated for 1 hour at room temperature and the reaction mixtures were filtered through a Packard GF/C Unifilter filter plate. The filter plate was dried for 1 hour in a vacuum oven. Scintillation fluid ([…]) was added to each well, and the filter plate was counted in a Packard Topcount scintillation counter. Data was analyzed using GraphPad Prism software.
(§6) Tables A-J list the IC50 values expressed in nanomolar concentration for select compounds of the invention in all receptor subtypes.

α1d-AR = target: T3, α1d-AR (Homo sapiens, UniProt P25100); assay: radioligand ([125I]-HEAT) receptor binding assay, COS cell membranes, α1d-AR; conditions: Tables A-J, [125I]-HEAT 50 pM
T3 construct: expressed in transfected cells; host or cells: COS cells (pcDNA3 vector, DEAE-dextran transient transfection); membrane preparation
T3 sequence (P25100 1-572): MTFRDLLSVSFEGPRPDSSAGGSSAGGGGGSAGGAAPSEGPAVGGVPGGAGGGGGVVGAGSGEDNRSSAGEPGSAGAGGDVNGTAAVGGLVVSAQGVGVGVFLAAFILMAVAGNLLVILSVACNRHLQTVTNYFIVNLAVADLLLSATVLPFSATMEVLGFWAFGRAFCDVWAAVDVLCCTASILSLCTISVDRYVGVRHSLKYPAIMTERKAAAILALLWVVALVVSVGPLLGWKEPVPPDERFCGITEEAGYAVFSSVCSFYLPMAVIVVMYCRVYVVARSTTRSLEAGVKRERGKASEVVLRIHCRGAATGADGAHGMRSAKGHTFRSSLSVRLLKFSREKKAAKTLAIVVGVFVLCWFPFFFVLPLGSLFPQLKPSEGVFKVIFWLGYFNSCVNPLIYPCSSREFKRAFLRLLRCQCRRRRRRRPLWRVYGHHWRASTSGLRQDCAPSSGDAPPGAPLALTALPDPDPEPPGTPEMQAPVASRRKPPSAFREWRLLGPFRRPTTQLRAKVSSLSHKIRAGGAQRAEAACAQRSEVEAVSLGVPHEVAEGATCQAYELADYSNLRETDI
Text: as §1
as §2, with “receptor cDNAs. Radiolabeled ligands with binding activity on all three subtypes (non-selective) are commercially available ([125I]-HEAT, [3H]-prazosin).” for “receptor cDNAs.”
as §3, §4, §5, §6

α1c = target: T4, α1c (Homo sapiens, UniProt P25100); assay: α1c screen (as named in the preparative examples); assay type: binding; conditions: stated in the preparative example
T4 construct: expressed in transfected cells
T4 sequence (P25100 1-572): T3 sequence (P25100 1-572)
Text: as §1
as §2, with “receptor cDNAs. Radiolabeled ligands with binding activity on all three subtypes (non-selective) are commercially available ([125I]-HEAT, [3H]-prazosin).” for “receptor cDNAs.”
as §3, §4
The ability of each compound to bind to each of the α1-AR subtypes was assessed in a receptor binding assay. [125I]-HEAT, a non-selective α1-AR ligand, was used as the radiolabeled ligand. […] Scintillation fluid (25 mL) was added to each well, and the filter plate was counted in a Packard Topcount scintillation counter. Data was analyzed using GraphPad Prism software.

[1] = Tables A-J, [125I]-HEAT 50 pM, COS membranes, read-out: α1a IC50
[2] = Tables A-J, [125I]-HEAT 50 pM, COS membranes, read-out: α1b IC50
[3] = stated in the preparative example, read-out: activity in the α1a screen
[4] = stated in the preparative example, read-out: activity in the α1b screen

Row | SMILES | pIC50 (α1a-AR; [1]) | pIC50 (α1b-AR; [2]) | pIC50 (α1d-AR) | pIC50 (α1a-AR; [3]) | pIC50 (α1b-AR; [4]) | pIC50 (α1c)
1 | COc1ccccc1N1CCN(Cc2cccc(CN3CCCCC3=O)n2)CC1 [compound 54] | 5.76 | 5.52 | 6.30 | – | – | –
2 | CC(C)Oc1ccccc1N1CCN(CC(O)CC(=O)CN2CCCCC2=O)CC1 (centres unmarked) [compound 35] | – | – | – | 7.55 | < 5.00 | 6.60
3 | COc1ccccc1N1CCN(Cc2cccc(CN3CCCCCCC3=O)n2)CC1 [compound 44] | 5.69 | 5.40 | 6.24 | – | – | –
4 | CC(C)Oc1ccccc1N1CCN(Cc2cccc(CN3C(=O)CCCC3=O)n2)CC1 [compound 45] | 7.01 | 7.02 | 6.71 | – | – | –
5 | O=C1CCCCCN1Cc1cc(CN2CCN(c3ccccc3Oc3ccccc3)CC2)on1 [compound 39] | 6.76 | < 5.00 | 6.24 | – | – | –
6 | COc1ccccc1N1CCN(Cc2cccc(CN3CCC3=O)n2)CC1 [compound 41] | 5.12 | 5.50 | 5.77 | – | – | –
7 | CC(C)Oc1ccccc1N1CCN(Cc2cccc(CN3C(=O)CCC3=O)n2)CC1 [compound 46] | 7.16 | 5.76 | 6.76 | – | – | –
8 | CC(C)Oc1ccccc1N1CCN(Cc2cc(CN3CCCC3=O)cs2)CC1 [Compound 32] | 9.08 | 6.21 | 7.62 | – | – | –
9 | COc1ccccc1N1CCN(Cc2ccc(CN3CCCCCC3=O)s2)CC1 [compound 49] | 7.43 | < 5.00 | 7.62 | – | – | –
10 | CC(C)Oc1ccccc1N1CCN(Cc2cc(CN3CCCCC3=O)on2)CC1 [Compound 8] | 8.42 | – | 6.57 | – | – | –
11 | CC(C)Oc1ccccc1N1CCN(Cc2cccc(CN3C(=O)CCCC3c3ccccc3)n2)CC1 (centres unmarked) [compound 47] | 6.83 | 5.48 | 6.54 | – | – | –
12 | CC(C)Oc1ccccc1N1CCN(Cc2cc(CN3CCCCC3=O)cs2)CC1 [compound 55] | 9.00 | 6.11 | 6.73 | – | – | –
13 | COc1ccccc1N1CCN(Cc2ccc(CN3CCCC3=O)s2)CC1 [Compound 23] | 7.10 | < 5.00 | 7.34 | – | – | –
14 | CC(C)Oc1ccccc1N1CCN(Cc2nc(CN3CCCCC3=O)co2)CC1 [Compound 12] | 5.33 | < 5.00 | < 5.00 | – | – | –
15 | CC(C)Oc1ccccc1N1CCN(Cc2cc(CN3CCCCC3=O)nc(N)n2)CC1 [Compound 4] | 7.10 | < 5.00 | < 5.00 | – | – | –
16 | CC(C)Oc1ccccc1N1CCN(CC(O)CC(O)CN2CCCCC2=O)CC1 (centres unmarked) [compound 37] | – | – | – | 7.28 | < 5.00 | 6.65
17 | CC(C)Oc1ccccc1N1CCN(Cc2ncc(CN3CCCC3=O)s2)CC1 [Compound 17] | 8.60 | 5.46 | 7.10 | – | – | –
18 | CC(C)Oc1ccccc1N1CCN(CC2=NOC(CN3CCCCC3=O)C2)CC1 (centres unmarked) [Compound 9] | 7.05 | < 5.00 | 5.82 | – | – | –
19 | COc1ccccc1N1CCN(Cc2ccc(CN3CCCCC3CO)s2)CC1 (centres unmarked) [compound 50] | 6.08 | < 5.29 | 6.58 | – | – | –
20 | CC(C)Oc1ccccc1N1CCN(C/C=C/C(=O)CN2CCCCC2=O)CC1 [compound 36] | 8.20 | < 5.00 | 6.67 | 7.74 | 5.27 | 6.22
21 | CC(C)Oc1ccccc1N1CCN(Cc2cc(CN3CCCC3=O)no2)CC1 [Compound 28] | 8.66 | < 5.22 | 6.88 | – | – | –
22 | CC(C)Oc1ccccc1N1CCN(CC(=O)CC(=O)CN2CCCCC2=O)CC1 [compound 2] | – | – | – | 6.38 | < 5.00 | 5.22
23 | COc1ccccc1N1CCN(Cc2cccc(CN3CCCC3=O)n2)CC1 [compound 43] | 5.11 | 5.58 | 5.81 | – | – | –
24 | O=C1CCCN1Cc1cc(CN2CCN(c3ccccc3Oc3ccccc3)CC2)on1 [compound 38] | 7.52 | 5.36 | 6.47 | – | – | –
25 | COc1ccccc1N1CCN(Cc2cccc(CN3CCCCCC3=O)n2)CC1 [compound 42] | 5.07 | 5.85 | 6.28 | – | – | –
26 | COc1ccccc1N1CCN(Cc2ccc(CN3CCCCC3=O)s2)CC1 [compound 48] | 7.54 | < 5.00 | 7.59 | – | – | –
27 | CC(C)Oc1ccccc1N1CCN(Cc2cc(CN3CCCCCC3=O)cs2)CC1 [compound 56] | 8.43 | 5.91 | 7.02 | – | – | –
